Data taken from the supplement of paper PMC10307832.

Tests used:
Experiment in all cases: relative viability (nuclei count vs DMSO), 5 days (fraction); higher = more cells survive
Obatoclax + Dasatinib = compound: COC1=CC(c2cc3ccccc3[nH]2)=N/C1=C\c1[nH]c(C)cc1C [Obatoclax] + Cc1nc(Nc2ncc(C(=O)Nc3c(C)cccc3Cl)s2)cc(N2CCN(CCO)CC2)n1 [Dasatinib] (partner 0.075 µM)
Outline: (§1)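 Lung cancer cell lines were seeded in 1536-well plates and dosed by pin tool the next day, with either a single drug or a fixed anchor-drug dose combined with five library-drug doses (not always all listed) spaced in √10 steps. Five days later, one step fixed the cells and stained their nuclei (final 0.05% Triton X-100, 1% formaldehyde, 1 ug/ml Hoechst), and nuclei were counted on 4× images. Relative viability is the nuclei count in treated wells divided by the count in vehicle wells, and each value is the median of duplicate plates.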

Bortezomib + Tozasertib = compound: CC(C)C[C@H](NC(=O)[C@H](Cc1ccccc1)NC(=O)c1cnccn1)B(O)O [Bortezomib] + Cc1cc(Nc2cc(N3CCN(C)CC3)nc(Sc3ccc(NC(=O)C4CC4)cc3)n2)n[nH]1 [Tozasertib] (partner 0.1 µM)
Outline: as §1

Obatoclax + Alpelisib = compound: COC1=CC(c2cc3ccccc3[nH]2)=N/C1=C\c1[nH]c(C)cc1C [Obatoclax] + Cc1nc(NC(=O)N2CCC[C@H]2C(N)=O)sc1-c1ccnc(C(C)(C)C(F)(F)F)c1 [Alpelisib] (partner 2 µM)
Outline: as §1

Bortezomib + Olaparib = compound: CC(C)C[C@H](NC(=O)[C@H](Cc1ccccc1)NC(=O)c1cnccn1)B(O)O [Bortezomib] + O=C(c1cc(Cc2n[nH]c(=O)c3ccccc23)ccc1F)N1CCN(C(=O)C2CC2)CC1 [Olaparib] (partner 8 µM)
Outline: as §1

Cell Line | relative viability (Obatoclax + Dasatinib; first compound 0.01 µM) | relative viability (Obatoclax + Dasatinib; first compound 0.03162 µM) | relative viability (Obatoclax + Dasatinib; first compound 0.1 µM) | relative viability (Obatoclax + Dasatinib; first compound 0.3162 µM) | relative viability (Obatoclax + Dasatinib; first compound 1 µM) | relative viability (Bortezomib + Tozasertib; first compound 0.0002 µM) | relative viability (Bortezomib + Tozasertib; first compound 0.000632 µM) | relative viability (Bortezomib + Tozasertib; first compound 0.002 µM) | relative viability (Bortezomib + Tozasertib; first compound 0.006325 µM) | relative viability (Bortezomib + Tozasertib; first compound 0.02 µM) | relative viability (Obatoclax + Alpelisib; first compound 0.01 µM) | relative viability (Obatoclax + Alpelisib; first compound 0.03162 µM) | relative viability (Obatoclax + Alpelisib; first compound 0.1 µM) | relative viability (Obatoclax + Alpelisib; first compound 0.3162 µM) | relative viability (Obatoclax + Alpelisib; first compound 1 µM) | relative viability (Bortezomib + Olaparib; first compound 0.0002 µM) | relative viability (Bortezomib + Olaparib; first compound 0.000632 µM) | relative viability (Bortezomib + Olaparib; first compound 0.002 µM) | relative viability (Bortezomib + Olaparib; first compound 0.006325 µM) | relative viability (Bortezomib + Olaparib; first compound 0.02 µM)
201T | 0.599 | 0.412 | 0.588 | 0.569 | 0.6 | 0.863 | 0.968 | 1.01 | 0.715 | 0.278 | 1 | 0.983 | 1.02 | 1.04 | 1.08 | 0.83 | 0.856 | 0.803 | 0.753 | 0.214
A549 |  |  |  |  |  |  |  |  |  |  | 0.76 | 0.876 | 0.748 | 0.298 | 0.0816 | 0.355 | 0.401 | 0.49 | 0.291 | 0.189
A-427 | 0.719 | 0.687 | 0.462 | 0.6 | 0.271 | 0.212 | 0.263 | 0.193 | 0.105 | 0.102 | 1.14 | 1.09 | 1.13 | 1.04 | 1.01 | 0.711 | 0.727 | 0.759 | 0.188 | 0.151
ABC-1 | 0.498 | 0.55 | 0.369 | 0.551 | 0.375 | 0.162 | 0.213 | 0.181 | 0.16 | 0.226 | 1.04 | 1.18 | 1.09 | 1.19 | 0.573 | 0.897 | 0.922 | 0.374 | 0.342 | 0.424
BEN | 0.321 | 0.312 |  | 0.41 | 0.272 | 0.496 | 0.554 | 0.449 | 0.511 | 0.362 | 0.963 | 1 | 0.904 | 1.16 | 0.911 | 1.15 | 0.921 | 0.845 | 0.742 | 0.218
CAL-12T | 0.419 | 0.414 | 0.426 | 0.0751 | 0.0688 | 0.322 | 0.285 | 0.358 | 0.193 | 0.106 | 1.14 | 1.29 | 1.01 | 0.695 | 0.129 | 0.625 | 0.675 | 0.62 | 0.282 | 0.199
COR-L23 | 0.494 | 0.488 | 0.416 | 0.285 | 0.163 | 0.198 | 0.198 | 0.153 | 0.049 | 0.0491 | 0.765 | 0.808 | 0.675 | 0.209 | 0.182 | 0.37 | 0.375 | 0.203 | 0.0613 | 0.0717
COR-L 105 | 0.4 | 0.358 | 0.372 | 0.265 | 0.246 | 0.357 | 0.345 | 0.216 | 0.254 | 0.19 | 1.02 | 1.21 | 0.944 | 0.904 | 0.336 | 0.692 | 0.683 | 0.72 | 0.419 | 0.356
Calu-6 |  |  |  |  |  |  |  |  |  |  | 0.899 | 1.01 | 0.898 | 0.677 | 0.205 | 0.509 | 0.524 | 0.529 | 0.0855 | 0.0795
